From patent US7943619B2, “Isoxazolo-pyridazine derivatives” (priority 2007, dated 2011)

Molecular target: human GABA A receptor α5β3γ2 (α5 subunit) (Homo sapiens, UniProt P18507+P31644)
Assay: biochemical
Assay type: binding
Conditions: not given
Experimental: The affinity of compounds at GABA A receptor subtypes was measured by competition for [3H]flumazenil (85 Ci/mmol; Roche) binding to HEK293 cells expressing rat (stably transfected) or human (transiently transfected) receptors of composition α1β3γ2, α2β3γ2, α3β3γ2 and α5β3γ2.
Cell pellets were suspended in Krebs-tris buffer (4.8 mM KCl, 1.2 mM CaCl2, 1.2 mM MgCl2, 120 mM NaCl, 15 mM Tris; pH 7.5; binding assay buffer), homogenized by polytron for ca. 20 sec on ice and centrifuged for 60 min at 4° C. (50000 g; Sorvall, rotor: SM24=20000 rpm). The cell pellets were resuspended in Krebs-tris buffer and homogenized by polytron for ca. 15 sec on ice. Protein was measured (Bradford method, Bio-Rad) and aliquots of 1 mL were prepared and stored at −80° C.
Assays were incubated to equilibrium for 1 hour at 4° C. and harvested onto GF/C uni-filters (Packard) by filtration using a Packard harvester and washing with ice-cold wash buffer (50 mM Tris; pH 7.5). After drying, filter-retained radioactivity was detected by liquid scintillation counting. Ki values were calculated using Excel-Fit (Microsoft) and are the means of two determinations.

human GABA A receptor α5β3γ2 (α5 subunit), sequence (P31644 32-462): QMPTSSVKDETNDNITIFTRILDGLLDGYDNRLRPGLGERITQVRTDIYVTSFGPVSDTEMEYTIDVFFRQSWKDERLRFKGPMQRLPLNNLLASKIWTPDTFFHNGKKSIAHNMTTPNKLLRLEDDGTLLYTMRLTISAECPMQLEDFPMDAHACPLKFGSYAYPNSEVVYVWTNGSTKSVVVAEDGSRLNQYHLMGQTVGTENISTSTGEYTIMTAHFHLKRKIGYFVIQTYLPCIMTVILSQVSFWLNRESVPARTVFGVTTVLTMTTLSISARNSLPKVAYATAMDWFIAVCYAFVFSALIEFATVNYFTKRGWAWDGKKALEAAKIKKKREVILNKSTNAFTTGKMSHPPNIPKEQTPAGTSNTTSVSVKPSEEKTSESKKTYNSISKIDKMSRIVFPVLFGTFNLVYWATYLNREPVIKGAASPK
human GABA A receptor α5β3γ2 (α5 subunit), sequence (P28472 26-473 partner): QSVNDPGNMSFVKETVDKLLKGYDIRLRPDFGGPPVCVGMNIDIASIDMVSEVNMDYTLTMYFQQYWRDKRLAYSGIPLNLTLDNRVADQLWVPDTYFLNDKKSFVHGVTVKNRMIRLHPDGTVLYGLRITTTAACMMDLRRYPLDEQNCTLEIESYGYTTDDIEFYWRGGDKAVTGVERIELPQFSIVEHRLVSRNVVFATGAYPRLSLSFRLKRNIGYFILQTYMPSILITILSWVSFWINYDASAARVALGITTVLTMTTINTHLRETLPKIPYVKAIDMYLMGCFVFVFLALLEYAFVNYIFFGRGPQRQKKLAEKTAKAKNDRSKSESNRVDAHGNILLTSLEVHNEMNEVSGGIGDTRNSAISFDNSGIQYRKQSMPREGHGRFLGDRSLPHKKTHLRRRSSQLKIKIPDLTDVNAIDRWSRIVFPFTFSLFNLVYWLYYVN
human GABA A receptor α5β3γ2 (α5 subunit), sequence (P18507 40-475): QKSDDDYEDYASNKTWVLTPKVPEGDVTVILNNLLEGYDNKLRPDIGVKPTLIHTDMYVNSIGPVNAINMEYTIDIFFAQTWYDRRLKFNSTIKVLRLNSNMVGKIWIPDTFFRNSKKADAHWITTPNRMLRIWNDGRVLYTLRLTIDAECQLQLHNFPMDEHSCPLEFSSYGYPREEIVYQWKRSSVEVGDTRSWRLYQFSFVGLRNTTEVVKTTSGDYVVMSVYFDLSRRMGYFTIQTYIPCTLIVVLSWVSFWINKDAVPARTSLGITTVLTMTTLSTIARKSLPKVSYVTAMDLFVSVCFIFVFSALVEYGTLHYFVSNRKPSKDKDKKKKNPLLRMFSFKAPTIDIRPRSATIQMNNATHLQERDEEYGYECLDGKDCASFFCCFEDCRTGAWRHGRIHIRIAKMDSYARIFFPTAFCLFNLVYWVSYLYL

| Ki [nM] | Compound |
| --- | --- |
| 25.9 | Cc1onc(-c2ccccn2)c1COc1ccc(C(=O)N2CCOCC2)nn1 [Example 96, [6-(5-Methyl-3-pyridin-2-yl-isoxazol-4-ylmethoxy)-pyridazin-3-yl]-morpholin-4-yl-methanone] |

Same assay, conditions: competition for [3H]flumazenil binding, HEK293 cells transiently expressing human receptors; means of two determinations; read-out: hKi

| Compound | Ki [nM] |
| --- | --- |
| Cc1onc(-c2ccc(F)cc2)c1COc1ccc(Cl)nn1 [Example 57, 3-Chloro-6-[3-(4-fluoro-phenyl)-5-methyl-isoxazol-4-ylmethoxy]-pyridazine] | 4.6 |
| Cc1onc(-c2ccc(F)cc2)c1COc1ccc(C(=O)NCC2CC2)nn1 [Example 59, 6-[3-(4-Fluoro-phenyl)-5-methyl-isoxazol-4-ylmethoxy]-pyridazine-3-carboxylic acid cyclopropylmethyl-amide] | 4.6 |
| Cc1onc(-c2ccc(F)cc2)c1COc1ccc(C(=O)N2CCS(=O)(=O)CC2)nn1 [Example 66, (1,1-Dioxo-1λ6-thiomorpholin-4-yl)-{6-[3-(4-fluoro-phenyl)-5-methyl-isoxazol-4-ylmethoxy]-pyridazin-3-yl}-methanone] | 11.7 |
| Cc1onc(-c2ccccc2)c1COc1ccc2nncn2n1 [Example 86, 6-(5-Methyl-3-phenyl-isoxazol-4-ylmethoxy)-[1,2,4]triazolo[4,3-b]pyridazine] | 6.6 |
| Cc1onc(-c2ccc(F)cc2)c1COc1ccc2nncn2n1 [Example 91, 6-[3-(4-Fluoro-phenyl)-5-methyl-isoxazol-4-ylmethoxy]-[1,2,4]triazolo[4,3-b]pyridazine] | 7.5 |
| Cc1onc(-c2ccccn2)c1COc1ccc(Cl)nn1 [Example 92, 3-Chloro-6-(5-methyl-3-pyridin-2-yl-isoxazol-4-ylmethoxy)-pyridazine] | 3.8 |
| Cc1onc(-c2ccccn2)c1COc1ccc(C(=O)N2CCS(=O)(=O)CC2)nn1 [Example 99, (1,1-Dioxo-1λ6-thiomorpholin-4-yl)-[6-(5-methyl-3-pyridin-2-yl-isoxazol-4-ylmethoxy)-pyridazin-3-yl]-methanone] | 18.1 |
| Cc1onc(-c2ccccn2)c1COc1ccc(C(=O)NCC2CC2)nn1 [Example 100, 6-(5-Methyl-3-pyridin-2-yl-isoxazol-4-ylmethoxy)-pyridazine-3-carboxylic acid cyclopropylmethyl-amide] | 4.1 |
| Cc1onc(-c2ccccn2)c1COc1ccc(C(=O)N2CCSCC2)nn1 [Example 104, [6-(5-Methyl-3-pyridin-2-yl-isoxazol-4-ylmethoxy)-pyridazin-3-yl]-thiomorpholin-4-yl-methanone] | 27.8 |
| Cc1onc(-c2ccccn2)c1COc1ccc(C(=O)NC(C)(C)CO)nn1 [Example 105, 6-(5-Methyl-3-pyridin-2-yl-isoxazol-4-ylmethoxy)-pyridazine-3-carboxylic acid (2-hydroxy-1,1-dimethyl-ethyl)-amide] | 4 |
| Cc1onc(-c2ccncc2)c1COc1ccc(C(=O)NCCO)nn1 [Example 107, 6-(5-Methyl-3-pyridin-4-yl-isoxazol-4-ylmethoxy)-pyridazine-3-carboxylic acid (2-hydroxy-ethyl)-amide] | 23.3 |
| CNC(=O)c1ccc(OCc2c(-c3ccncc3)noc2C)nn1 [Example 108, 6-(5-Methyl-3-pyridin-4-yl-isoxazol-4-ylmethoxy)-pyridazine-3-carboxylic acid methylamide] | 9 |
| CCNC(=O)c1ccc(OCc2c(-c3ccncc3)noc2C)nn1 [Example 109, 6-(5-Methyl-3-pyridin-4-yl-isoxazol-4-ylmethoxy)-pyridazine-3-carboxylic acid ethylamide] | 14.2 |
| Cc1onc(-c2ccncn2)c1COc1ccc(C(=O)NCCO)nn1 [Example 114, 6-(5-Methyl-3-pyrimidin-4-yl-isoxazol-4-ylmethoxy)-pyridazine-3-carboxylic acid (2-hydroxy-ethyl)-amide] | 4.7 |
| Cc1onc(-c2ccncn2)c1COc1ccc(C(=O)NC(C)(C)CO)nn1 [Example 115, 6-(5-Methyl-3-pyrimidin-4-yl-isoxazol-4-ylmethoxy)-pyridazine-3-carboxylic acid (2-hydroxy-1,1-dimethyl-ethyl)-amide] | 14.8 |
| Cc1onc(-c2cccc(F)c2)c1CNc1ccc(C(=O)NCC(F)(F)F)nn1 [Example 118, 6-{[3-(3-Fluoro-phenyl)-5-methyl-isoxazol-4-ylmethyl]-amino}-pyridazine-3-carboxylic acid (2,2,2-trifluoro-ethyl)-amide] | 28.9 |
| Cc1onc(-c2ccc(Cl)cn2)c1CNc1ccc(C(=O)NC(C)(C)CO)nn1 [Example 119, 6-{[3-(5-Chloro-pyridin-2-yl)-5-methyl-isoxazol-4-ylmethyl]-amino}-pyridazine-3-carboxylic acid (2-hydroxy-1,1-dimethyl-ethyl)-amide] | 7.3 |
| CC(C)NC(=O)c1ccc(OCc2conc2-c2ccc(F)cc2)nn1 [Example 121, 6-[3-(4-Fluoro-phenyl)-isoxazol-4-ylmethoxy]-pyridazine-3-carboxylic acid isopropylamide] | 27.6 |

Second part, the compound after the results:

| Ki [nM] | Compound |
| --- | --- |
| 3.5 | Cc1onc(-c2ccc(F)cc2)c1COc1ccc(C(=O)NCC(F)(F)F)nn1 [Example 60, 6-[3-(4-Fluoro-phenyl)-5-methyl-isoxazol-4-ylmethoxy]-pyridazine-3-carboxylic acid (2,2,2-trifluoro-ethyl)-amide] |
| 3.3 | CCOC(=O)c1ccc(OCc2c(-c3ccc(F)cc3)noc2C)nn1 [Example 58, 6-[3-(4-Fluoro-phenyl)-5-methyl-isoxazol-4-ylmethoxy]-pyridazine-3-carboxylic acid ethyl ester] |
| 2.9 | CCOC(=O)c1ccc(OCc2c(-c3ccccn3)noc2C)nn1 [Example 93, 6-(5-Methyl-3-pyridin-2-yl-isoxazol-4-ylmethoxy)-pyridazine-3-carboxylic acid ethyl ester] |
| 2.9 | Cc1onc(-c2ccccn2)c1COc1ccc(C(=O)NC2CCOCC2)nn1 [Example 94, 6-(5-Methyl-3-pyridin-2-yl-isoxazol-4-ylmethoxy)-pyridazine-3-carboxylic acid (tetrahydro-pyran-4-yl)-amide] |
| 2.8 | Cc1onc(-c2ccccn2)c1COc1ccc(C(=O)NCC(F)(F)F)nn1 [Example 98, 6-(5-Methyl-3-pyridin-2-yl-isoxazol-4-ylmethoxy)-pyridazine-3-carboxylic acid (2,2,2-trifluoro-ethyl)-amide] |
| 2.7 | Cc1onc(-c2ccccn2)c1COc1ccc(C(=O)NC(C)C)nn1 [Example 95, 6-(5-Methyl-3-pyridin-2-yl-isoxazol-4-ylmethoxy)-pyridazine-3-carboxylic acid isopropylamide] |
| 2.4 | Cc1onc(-c2ccc(F)cc2)c1COc1ccc(C(=O)NC2CCOCC2)nn1 [Example 63, 6-[3-(4-Fluoro-phenyl)-5-methyl-isoxazol-4-ylmethoxy]-pyridazine-3-carboxylic acid (tetrahydro-pyran-4-yl)-amide] |
| 2.1 | Cc1onc(-c2ccc(Cl)cn2)c1COc1ccc(C(=O)O)nn1 [Example 113, 6-[3-(5-Chloro-pyridin-2-yl)-5-methyl-isoxazol-4-ylmethoxy]-pyridazine-3-carboxylic acid] |
| 1.7 | Cc1onc(-c2ccc(F)cc2)c1COc1ccc(C(=O)NC2CC2)nn1 [Example 62, 6-[3-(4-Fluoro-phenyl)-5-methyl-isoxazol-4-ylmethoxy]-pyridazine-3-carboxylic acid cyclopropylamide] |
| 1.6 | Cc1onc(-c2ccccn2)c1COc1ccc(C(=O)NC2CC2)nn1 [Example 97, 6-(5-Methyl-3-pyridin-2-yl-isoxazol-4-ylmethoxy)-pyridazine-3-carboxylic acid cyclopropylamide] |
| 1.6 | COCCNC(=O)c1ccc(OCc2c(-c3ccccn3)noc2C)nn1 [Example 106, 6-(5-Methyl-3-pyridin-2-yl-isoxazol-4-ylmethoxy)-pyridazine-3-carboxylic acid (2-methoxy-ethyl)-amide] |
| 1.6 | Cc1onc(-c2ccc(F)cn2)c1COc1ccc(Cl)nn1 [Example 110, 3-Chloro-6-[3-(5-fluoro-pyridin-2-yl)-5-methyl-isoxazol-4-ylmethoxy]-pyridazine] |
| 1.5 | CCNC(=O)c1ccc(OCc2c(-c3ccccn3)noc2C)nn1 [Example 103, 6-(5-Methyl-3-pyridin-2-yl-isoxazol-4-ylmethoxy)-pyridazine-3-carboxylic acid ethylamide] |
| 1.5 | Cc1onc(-c2ccc(F)cn2)c1COc1ccc(C(=O)NC(C)(C)CO)nn1 [Example 112, 6-[3-(5-Fluoro-pyridin-2-yl)-5-methyl-isoxazol-4-ylmethoxy]-pyridazine-3-carboxylic acid (2-hydroxy-1,1-dimethyl-ethyl)-amide] |
| 1.4 | Cc1onc(-c2ccccn2)c1COc1ccc(C(=O)NCCO)nn1 [Example 101, 6-(5-Methyl-3-pyridin-2-yl-isoxazol-4-ylmethoxy)-pyridazine-3-carboxylic acid (2-hydroxy-ethyl)-amide] |
| 1.2 | CCOC(=O)c1ccc(OCc2c(-c3ccc(F)cn3)noc2C)nn1 [Example 111, 6-[3-(5-Fluoro-pyridin-2-yl)-5-methyl-isoxazol-4-ylmethoxy]-pyridazine-3-carboxylic acid ethyl ester] |
| 0.9 | CNC(=O)c1ccc(OCc2c(-c3ccccn3)noc2C)nn1 [Example 102, 6-(5-Methyl-3-pyridin-2-yl-isoxazol-4-ylmethoxy)-pyridazine-3-carboxylic acid methylamide] |
